Where two headings read alike, the source gives them in different places. Marks after values point to notes of the source that are not given here.
Legend:
mAb 3H7A10 = test: Indirect competitive ELISA; type: binding, Balb/c mice; details: for Cross-reactivity: (IC50 of artemisinin/IC50 of other compound) × 100; for cross reactivities: artemisinin-specific mAb from position 9 hapten; for competitive inhibition: mAb 3H7A10, up to 20,000 ng mL^−1
[1] = test system: mAbs reported by He et al.; details: relative to artemisinin; cited from earlier work
[2] = test system: mAbs generated by Tanaka et al.; details: relative to artemisinin; cited from earlier work
[3] = test system: polyclonal antibodies prepared by Song et al.; details: cited from earlier work
[4] = humans, cited from earlier work
[5] = dogs, cited from earlier work
[6] = rats, cited from earlier work
[7] = goat, cited from earlier work
[8] = test system: mAbs raised by artelinic acid-BSA conjugate; details: cited from earlier work
in vivo = test: in vivo; parameters: species or system Sprague-Dawley rats; details: Sprague-Dawley, rat, ip, 10 mg/kg

SMILES	Cross-reactivity (mAb 3H7A10; mAb 3H7A10) [%]	Cross-reactivity [1] [%]	cross reactivities (mAb 3H7A10)	competitive inhibition (mAb 3H7A10; icELISA)	recognition by polyclonal antibodies [3]	further results
COc1cc(NC(C)CCCN)c2ncccc2c1 (stereo not drawn) [Primaquine phosphate]	0	–	–	–	–	–
CCc1nc(N)nc(N)c1-c1ccc(Cl)cc1 [Pyrimethamine]	0	–	–	–	–	–
C[C@H]1[C@H](OC(=O)CCC(=O)O)O[C@@H]2O[C@@]3(C)CC[C@H]4[C@H](C)CC[C@@H]1[C@@]24OO3 [Artesunate]	0	650	almost no cross reactivities	No competitive inhibition	equally well	Cross-reactivity [2]: 630%
C=C[C@H]1C[N@@]2CC[C@H]1C[C@H]2[C@H](O)c1ccnc2ccc(OC)cc12 [Quinine]	0	–	–	–	–	–
C[C@@H]1CC[C@H]2[C@@H](C)C(=O)O[C@@H]3O[C@@]4(C)CC[C@@H]1[C@]32OO4 [Artemisinin]	100 ± 4.6	–	–	–	–	AUC ([4]; another study): 754 ng·h/mL; Cmax ([4]; another study): 167 ng/mL; AUC ([4]; one study): 2,611 ng mL^−1 h; Cmax ([4]; one study): 623 ng/mL; half-life [4]: ~ 2 h; bioavailability ([5]; oral): bioavailability appeared low; IC50 (mAb 3H7A10; icELISA, mAb 3H7A10, means of triplicate ± SD, NI = no inhibition observed with up to 20,000 ng mL^−1 of the analytes): 2.60 ±0.12 ^b ng/mL; half-life ([6]; in all these studies): ~ 30 min; AUC0-24h ([6]; intraperitoneal injection, 10 mg/kg): 0.132 µM/h; AUC0-3h ([6]; oral administration, 10 mg/kg): 36.4 ng·h/mL; absorption and bioavailability ([7]; large amount of unabsorbed artemisinin eliminated in feces): slow absorption and low bioavailability; binding by mAbs [8]: approximately the same level; AUC(0-t) (in vivo): 43.7 ng·h/mL; Cmax (in vivo): 29.1 ± 3 ng/mL; Tmax (in vivo): 5 min; half-life (in vivo): 22.8 min
C[C@H]1[C@@H](O)O[C@@H]2O[C@@]3(C)CC[C@H]4[C@H](C)CC[C@@H]1[C@@]24OO3 [Dihydroartemisinin]	0	57	almost no cross reactivities	No competitive inhibition	equally well	Cross-reactivity [2]: 30%; blood concentrations ([5]; oral artemisinin): < 100 nM; time of peak of the metabolite ([7]; after artemisinin): 12 h
CCN(CC)CCCC(C)Nc1ccnc2cc(Cl)ccc12.O=P(O)(O)O.O=P(O)(O)O (stereo not drawn) [Chloroquine diphosphate salt]	0	–	–	–	–	–
CCCCN(CCCC)CC(O)c1cc(Cl)cc2c1-c1ccc(Cl)cc1/C2=C/c1ccc(Cl)cc1 (stereo not drawn) [Lumefantrine]	0	–	–	–	–	–
CO[C@H]1O[C@@H]2O[C@@]3(C)CC[C@H]4[C@H](C)CC[C@@H]([C@H]1C)[C@@]24OO3 [Artemether]	0	3	almost no cross reactivities	No competitive inhibition	equally well	binding by mAbs [8]: approximately the same level

From PMC5045448 (Analytical chemistry, 2016)
